Data reported in article PMC12775434, “Ultra-large virtual screening unveils potent agonists of the neuromodulatory orphan receptor GPR139” (Nature Communications, 2025).
Where two headings read alike, the source gives them in different places.

Experiment: Bioanalysis of compounds in mouse plasma and brain
Type: in vivo
Conditions: one hour after 30 mg/kg i.p.; for concentration at 1 h: intraperitoneal
Method: Adult […] C57BL/6 J mice (3-6 months old) were provided by Charles River. Both females and males (15 females and 9 males) were used in this study. Sex was evenly distributed across experimental groups. Sex was not considered in the study design or analysis, as no reports indicate differential expression levels of GPR139 between male and female mice. They were housed with ad libitum food and water, in a temperature and humidity-controlled environment under a standard 12 h light/dark cycle. The experiments were performed in agreement with the European Council Directive (86/609/EEC) and approved by the local Animal Ethics Committee at Karolinska Institute (3218-2022). All efforts were made to minimize suffering and the number of animals used. Mice were treated with either 10% DMSO + 10% solutol HS-15 + 80% saline (vehicle, n = 8), compound 1.5 (n = 8, 30 mg/kg i.p.), or JNJ-63533054 (n = 8, 30 mg/kg i.p.), both of which were dissolved in 10% DMSO + 10% solutol HS-15 + 80% saline. Mice were placed in an open field arena 10 min after the injection and recorded for 50 min. Total distance travelled and the time spent in the periphery arena were measured using an automated video tracking system (EthoVision XT 11.5; Noldus). One-way ANOVA followed by Dunnett’s multiple comparisons test and Two-way ANOVA followed by Tukey’s multiple comparisons test were used. Brain and blood samples were taken immediately after the locomotion test. The brain samples were quickly frozen, and blood was drawn from the cervical vein upon decapitation into EP tubes. The samples were immediately centrifuged for 10 min at 3000 × g at 4 °C, and the plasma was transferred into clean polypropylene tubes. All samples were stored at −80 °C before analysis.
1.5(S) and JNJ-63533054, and the internal standard warfarin, were quantified in plasma and brain tissue samples, using ultraperformance liquid chromatography-tandem mass spectrometry (UPLC-MS/MS). Samples, respective blanks, standards, and quality controls (QCs) were included in each bioanalytical run. For both compounds, the calibration curves in plasma included standards at 0.5–10 µM, and QCs at 1.9–7.6 µM, and those in brain tissue homogenate included standards at 1–25 µM, and QCs at 1–20 µM.
Plasma samples were first diluted 1:2 (v:v) in blank plasma on a 96-well plate (Corning). Thereafter, the samples, along with blank plasma, standards, and QCs, were precipitated by adding 180 µL ice-cold acetonitrile containing 100 nM warfarin to 20 µL sample. Samples were vortexed and centrifuged at 2465 × g, at 4 °C, for 20 min (Centrifuge 5810 R, Eppendorf, Germany). The supernatants were transferred to a new 96-well plate and 2 µL were injected onto the UPLC-column. One hemisphere of the brains was homogenized 1:4 (w:v) with 0.1 % formic acid in 1:1 acetonitrile and methanol (v:v) in tubes containing ceramic beads (Precellys® Hard Tissue Homogenizing CK28 (inert 2.8 ceramic, zirconium oxide, beads), 2 mL, polypropylene co-polymer, Bertin Technologies). The mechanical homogenization was performed using a Minilys homogenizer (Bertin Technologies, France) for 30 s at the highest speed (5000 rpm). The tubes were centrifuged at 5204 × g for 7 min, and the supernatant was transferred to an Eppendorf tube. Subsequently, brain homogenate supernatants, along with supernatants from blank brain homogenate, standards, and QCs, were treated as described for diluted plasma samples. […]

Question: Which concentration at 1 h (both sexes, C57BL/6 J, brain, read-out: total brain tissue concentration (Cbrain)) does the source give for CC(NC(=O)CNC(=O)c1cccc(Cl)c1)c1ccccc1 (centres unmarked) [JNJ-63533054, reference compound] here?
Answer: 24.8 µM

Question: And the Kp at 1 h (both sexes, C57BL/6 J, brain/plasma, ip, single time point, read-out: total brain-to-plasma concentration ratio (Kp,brain))?
Answer: 1.21 ± 0.12

Question: What about the concentration at 1 h (both sexes, C57BL/6 J, plasma, read-out: total plasma concentration (Cplasma)) of the same molecule?
Answer: 20.5 µM

Question: What about the “total brain tissue concentration (Cbrain)” value of the same molecule?
Answer: 24.8 ± 6.2 µM

Question: And the “total plasma concentration (Cplasma)” value?
Answer: 20.5 ± 5.3 µM
